From ChEMBL document CHEMBL5465560, “Selectivity Literature for EUbOPEN Chemogenomic Library” (2024)
One block for each compound: values may come before it.

Tests used:
[1] = target: T1, Cyclin-dependent kinase 11A (Homo sapiens) (UniProt Q9UQ88); assay: Selectivity interaction (KinomeScan (DiscoverX)) EUB0001049a CDK11A; details: at 1 µM
T1 sequence (whole entry): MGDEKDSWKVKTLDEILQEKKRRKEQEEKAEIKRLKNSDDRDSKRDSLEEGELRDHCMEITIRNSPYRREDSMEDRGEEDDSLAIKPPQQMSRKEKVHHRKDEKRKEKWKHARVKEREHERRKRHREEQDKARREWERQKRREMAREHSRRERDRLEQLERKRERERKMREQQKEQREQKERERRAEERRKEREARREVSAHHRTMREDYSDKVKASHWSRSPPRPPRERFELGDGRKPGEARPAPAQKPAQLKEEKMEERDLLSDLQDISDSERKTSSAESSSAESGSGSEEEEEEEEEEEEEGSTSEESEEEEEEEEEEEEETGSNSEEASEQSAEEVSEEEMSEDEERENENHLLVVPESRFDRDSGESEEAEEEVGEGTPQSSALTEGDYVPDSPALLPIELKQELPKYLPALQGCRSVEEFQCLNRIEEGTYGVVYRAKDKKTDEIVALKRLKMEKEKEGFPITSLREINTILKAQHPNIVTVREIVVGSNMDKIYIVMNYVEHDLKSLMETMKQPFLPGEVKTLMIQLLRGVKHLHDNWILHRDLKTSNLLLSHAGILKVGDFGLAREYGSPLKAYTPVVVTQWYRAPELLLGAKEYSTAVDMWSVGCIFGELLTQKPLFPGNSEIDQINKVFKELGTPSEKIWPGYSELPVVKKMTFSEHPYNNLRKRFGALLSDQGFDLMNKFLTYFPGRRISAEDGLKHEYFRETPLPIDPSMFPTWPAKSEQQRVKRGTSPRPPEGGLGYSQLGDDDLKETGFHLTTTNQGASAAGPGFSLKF

[2] = target: Non-receptor tyrosine-protein kinase TYK2 (Homo sapiens, UniProt P29597); assay: Selectivity interaction (ActivX KiNativ screen (kinase selectivity in THP-1 cell lysates)) EUB0000639a TYK2; type: subcellular; details: lysate, at 0.01 µM
Sequence of Non-receptor tyrosine-protein kinase TYK2 (P29597 whole entry): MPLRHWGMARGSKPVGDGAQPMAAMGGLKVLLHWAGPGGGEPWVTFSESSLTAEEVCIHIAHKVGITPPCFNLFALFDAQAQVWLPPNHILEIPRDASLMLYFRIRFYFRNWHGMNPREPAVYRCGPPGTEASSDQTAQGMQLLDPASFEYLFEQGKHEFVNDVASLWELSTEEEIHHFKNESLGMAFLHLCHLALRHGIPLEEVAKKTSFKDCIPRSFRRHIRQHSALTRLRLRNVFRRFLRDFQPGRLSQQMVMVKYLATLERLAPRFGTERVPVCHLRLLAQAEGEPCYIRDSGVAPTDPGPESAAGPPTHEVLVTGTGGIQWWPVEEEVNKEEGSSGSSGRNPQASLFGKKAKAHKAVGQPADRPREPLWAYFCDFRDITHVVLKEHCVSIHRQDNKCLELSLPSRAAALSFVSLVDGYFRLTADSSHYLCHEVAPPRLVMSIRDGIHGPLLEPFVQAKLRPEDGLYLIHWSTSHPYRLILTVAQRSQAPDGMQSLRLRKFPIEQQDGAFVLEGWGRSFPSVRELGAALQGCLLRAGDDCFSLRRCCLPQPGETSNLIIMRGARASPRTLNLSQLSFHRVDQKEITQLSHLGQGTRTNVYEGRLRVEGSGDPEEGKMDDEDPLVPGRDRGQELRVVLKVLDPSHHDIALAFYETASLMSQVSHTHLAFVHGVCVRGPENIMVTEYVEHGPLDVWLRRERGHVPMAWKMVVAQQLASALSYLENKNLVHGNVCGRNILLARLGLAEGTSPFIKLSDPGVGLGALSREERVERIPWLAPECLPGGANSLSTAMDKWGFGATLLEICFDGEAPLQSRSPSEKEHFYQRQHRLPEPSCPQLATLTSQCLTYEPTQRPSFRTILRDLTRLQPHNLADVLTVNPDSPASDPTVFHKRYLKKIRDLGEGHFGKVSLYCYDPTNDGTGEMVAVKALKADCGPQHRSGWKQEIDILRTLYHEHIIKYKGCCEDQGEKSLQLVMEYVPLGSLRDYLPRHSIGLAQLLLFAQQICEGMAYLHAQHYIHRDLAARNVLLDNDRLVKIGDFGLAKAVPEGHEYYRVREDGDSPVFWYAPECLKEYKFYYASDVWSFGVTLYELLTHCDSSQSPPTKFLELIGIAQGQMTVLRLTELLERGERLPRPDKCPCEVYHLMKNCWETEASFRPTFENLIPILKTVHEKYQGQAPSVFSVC

[3] = target: T2, Mitogen-activated protein kinase kinase kinase 3 (Homo sapiens) (UniProt Q99759); assay: Selectivity interaction (ActivX KiNativ screen (kinase selectivity in THP-1 cell lysates)) EUB0000639a MAP3K3; type: subcellular; details: lysate, at 0.04 µM
T2 sequence (whole entry): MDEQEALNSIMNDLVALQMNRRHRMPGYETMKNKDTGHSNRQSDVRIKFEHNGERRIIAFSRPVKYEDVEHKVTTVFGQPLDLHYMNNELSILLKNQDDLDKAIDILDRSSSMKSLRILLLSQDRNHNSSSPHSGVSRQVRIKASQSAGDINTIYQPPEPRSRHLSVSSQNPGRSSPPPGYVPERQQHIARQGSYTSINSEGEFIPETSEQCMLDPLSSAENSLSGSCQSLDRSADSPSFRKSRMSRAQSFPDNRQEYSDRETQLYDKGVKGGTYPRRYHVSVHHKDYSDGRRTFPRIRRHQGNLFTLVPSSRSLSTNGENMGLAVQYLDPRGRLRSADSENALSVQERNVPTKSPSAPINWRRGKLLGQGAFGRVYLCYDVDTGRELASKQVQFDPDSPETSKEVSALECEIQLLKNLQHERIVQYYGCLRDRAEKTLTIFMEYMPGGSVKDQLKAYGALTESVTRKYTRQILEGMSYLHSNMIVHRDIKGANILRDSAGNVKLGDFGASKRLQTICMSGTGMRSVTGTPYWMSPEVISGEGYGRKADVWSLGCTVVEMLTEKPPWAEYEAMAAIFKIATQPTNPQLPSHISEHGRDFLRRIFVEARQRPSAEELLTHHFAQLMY

[4] = target: Receptor tyrosine-protein kinase erbB-2 (Homo sapiens, UniProt P04626); assay: Selectivity interaction (Kinase panel (33PanQinase(R) Activity Assay)) EUB0000877a ERBB2
Sequence of Receptor tyrosine-protein kinase erbB-2 (P04626 whole entry): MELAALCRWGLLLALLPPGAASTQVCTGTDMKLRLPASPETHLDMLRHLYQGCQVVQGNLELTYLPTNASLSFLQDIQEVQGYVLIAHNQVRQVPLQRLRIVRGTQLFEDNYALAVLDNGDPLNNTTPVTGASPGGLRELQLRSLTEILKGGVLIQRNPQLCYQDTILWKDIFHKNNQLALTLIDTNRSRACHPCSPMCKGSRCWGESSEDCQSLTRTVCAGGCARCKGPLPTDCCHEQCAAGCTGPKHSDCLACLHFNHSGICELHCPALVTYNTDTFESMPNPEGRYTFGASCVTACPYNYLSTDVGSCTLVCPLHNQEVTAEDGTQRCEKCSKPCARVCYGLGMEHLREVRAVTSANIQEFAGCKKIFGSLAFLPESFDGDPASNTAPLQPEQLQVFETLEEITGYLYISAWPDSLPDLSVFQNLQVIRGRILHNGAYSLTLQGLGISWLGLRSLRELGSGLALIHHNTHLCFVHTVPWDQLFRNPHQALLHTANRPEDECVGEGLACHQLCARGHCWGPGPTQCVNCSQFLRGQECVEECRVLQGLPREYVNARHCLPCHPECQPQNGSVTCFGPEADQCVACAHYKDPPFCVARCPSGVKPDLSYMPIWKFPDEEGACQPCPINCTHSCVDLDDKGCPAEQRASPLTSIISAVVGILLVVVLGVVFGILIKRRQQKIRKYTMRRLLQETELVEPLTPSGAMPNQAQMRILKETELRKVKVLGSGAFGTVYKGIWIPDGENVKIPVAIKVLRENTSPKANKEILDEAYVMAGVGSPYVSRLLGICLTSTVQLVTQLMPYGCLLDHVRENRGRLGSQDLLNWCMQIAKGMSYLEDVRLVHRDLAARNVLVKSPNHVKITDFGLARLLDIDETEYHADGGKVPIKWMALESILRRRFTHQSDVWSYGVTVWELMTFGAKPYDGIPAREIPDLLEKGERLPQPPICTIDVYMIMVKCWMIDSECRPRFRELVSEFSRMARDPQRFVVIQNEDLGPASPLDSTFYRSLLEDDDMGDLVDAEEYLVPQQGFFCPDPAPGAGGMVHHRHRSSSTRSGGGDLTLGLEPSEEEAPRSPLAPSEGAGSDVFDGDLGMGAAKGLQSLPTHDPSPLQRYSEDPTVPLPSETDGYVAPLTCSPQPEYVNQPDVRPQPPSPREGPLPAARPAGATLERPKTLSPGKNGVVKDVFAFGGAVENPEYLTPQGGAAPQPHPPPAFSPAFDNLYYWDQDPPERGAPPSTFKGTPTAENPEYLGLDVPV

[5] = target: Serine/threonine-protein kinase SIK1 (Homo sapiens) (UniProt P57059); assay: Selectivity interaction (KinomeScan (DiscoverX)) EUB0000595a SIK1; details: at 10 µM
[6] = target: Hepatocyte growth factor-like protein (Homo sapiens) (UniProt P26927); assay: Selectivity interaction (KinomeScan (DiscoverX)) EUB0000595a MST1; details: at 10 µM
[7] = target: 1-phosphatidylinositol 3-phosphate 5-kinase (Homo sapiens) (UniProt Q9Y2I7); assay: Selectivity interaction (KinomeScan (DiscoverX)) EUB0000229b PIKFYVE; details: at 10 µM
Sequence of 1-phosphatidylinositol 3-phosphate 5-kinase (Homo sapiens) (Q9Y2I7 whole entry): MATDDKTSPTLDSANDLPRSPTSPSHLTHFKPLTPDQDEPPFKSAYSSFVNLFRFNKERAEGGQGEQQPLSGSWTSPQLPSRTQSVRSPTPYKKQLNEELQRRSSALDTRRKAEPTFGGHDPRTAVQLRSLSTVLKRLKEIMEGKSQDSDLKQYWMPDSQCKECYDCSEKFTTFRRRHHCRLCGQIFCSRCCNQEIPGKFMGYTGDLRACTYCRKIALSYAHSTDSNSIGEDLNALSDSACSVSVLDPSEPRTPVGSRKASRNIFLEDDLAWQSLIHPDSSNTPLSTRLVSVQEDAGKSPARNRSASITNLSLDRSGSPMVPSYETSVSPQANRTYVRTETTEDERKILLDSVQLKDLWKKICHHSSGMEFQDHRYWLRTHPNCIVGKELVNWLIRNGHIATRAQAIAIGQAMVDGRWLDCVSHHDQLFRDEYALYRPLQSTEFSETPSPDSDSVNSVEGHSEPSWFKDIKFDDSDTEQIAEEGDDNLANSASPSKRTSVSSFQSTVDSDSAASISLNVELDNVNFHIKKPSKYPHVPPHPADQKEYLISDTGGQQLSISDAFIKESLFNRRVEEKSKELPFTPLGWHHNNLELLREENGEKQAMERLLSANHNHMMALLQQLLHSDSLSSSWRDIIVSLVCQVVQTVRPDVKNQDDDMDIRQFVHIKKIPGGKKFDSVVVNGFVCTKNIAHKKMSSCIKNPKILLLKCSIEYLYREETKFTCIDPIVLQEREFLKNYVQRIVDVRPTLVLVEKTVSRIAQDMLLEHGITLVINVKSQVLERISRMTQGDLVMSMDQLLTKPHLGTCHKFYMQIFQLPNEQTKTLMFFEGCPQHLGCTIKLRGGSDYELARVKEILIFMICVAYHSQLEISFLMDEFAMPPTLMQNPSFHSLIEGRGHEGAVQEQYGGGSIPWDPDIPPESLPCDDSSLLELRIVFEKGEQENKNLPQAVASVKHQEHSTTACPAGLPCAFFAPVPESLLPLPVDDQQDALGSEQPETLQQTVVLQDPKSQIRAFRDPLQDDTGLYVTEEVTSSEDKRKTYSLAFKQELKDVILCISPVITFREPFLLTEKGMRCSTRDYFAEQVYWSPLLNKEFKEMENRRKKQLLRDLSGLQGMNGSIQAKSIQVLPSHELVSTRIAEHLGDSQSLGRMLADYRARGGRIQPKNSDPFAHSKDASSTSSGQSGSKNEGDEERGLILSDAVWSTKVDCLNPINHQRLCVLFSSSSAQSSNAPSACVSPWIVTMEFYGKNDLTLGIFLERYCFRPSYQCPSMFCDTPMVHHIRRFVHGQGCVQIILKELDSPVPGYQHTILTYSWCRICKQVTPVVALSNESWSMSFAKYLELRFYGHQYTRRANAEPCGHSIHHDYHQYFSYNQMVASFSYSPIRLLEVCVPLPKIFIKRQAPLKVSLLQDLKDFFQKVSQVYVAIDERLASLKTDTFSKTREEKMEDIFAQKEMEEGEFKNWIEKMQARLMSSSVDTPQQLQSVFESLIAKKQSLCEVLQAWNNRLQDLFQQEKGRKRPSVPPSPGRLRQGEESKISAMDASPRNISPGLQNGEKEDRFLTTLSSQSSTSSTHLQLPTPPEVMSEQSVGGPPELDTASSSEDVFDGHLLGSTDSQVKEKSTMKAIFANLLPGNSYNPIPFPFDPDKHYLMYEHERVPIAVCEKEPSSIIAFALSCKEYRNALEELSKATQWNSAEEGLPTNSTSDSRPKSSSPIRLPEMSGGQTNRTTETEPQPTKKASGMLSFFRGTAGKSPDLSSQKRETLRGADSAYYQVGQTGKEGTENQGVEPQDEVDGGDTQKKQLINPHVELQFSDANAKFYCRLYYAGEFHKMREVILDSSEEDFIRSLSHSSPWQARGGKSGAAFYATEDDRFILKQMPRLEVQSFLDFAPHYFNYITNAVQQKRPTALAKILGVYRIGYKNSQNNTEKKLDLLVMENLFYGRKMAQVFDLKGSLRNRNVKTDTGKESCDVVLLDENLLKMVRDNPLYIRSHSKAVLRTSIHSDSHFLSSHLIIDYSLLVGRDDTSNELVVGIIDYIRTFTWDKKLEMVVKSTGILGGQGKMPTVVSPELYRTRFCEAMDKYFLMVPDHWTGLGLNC

[8] = target: T3, Ephrin type-B receptor 2 (Homo sapiens) (UniProt P29323); assay: Selectivity interaction (KinomeScan (DiscoverX)) EUB0000229b EPHB2; details: at 10 µM
T3 sequence (whole entry): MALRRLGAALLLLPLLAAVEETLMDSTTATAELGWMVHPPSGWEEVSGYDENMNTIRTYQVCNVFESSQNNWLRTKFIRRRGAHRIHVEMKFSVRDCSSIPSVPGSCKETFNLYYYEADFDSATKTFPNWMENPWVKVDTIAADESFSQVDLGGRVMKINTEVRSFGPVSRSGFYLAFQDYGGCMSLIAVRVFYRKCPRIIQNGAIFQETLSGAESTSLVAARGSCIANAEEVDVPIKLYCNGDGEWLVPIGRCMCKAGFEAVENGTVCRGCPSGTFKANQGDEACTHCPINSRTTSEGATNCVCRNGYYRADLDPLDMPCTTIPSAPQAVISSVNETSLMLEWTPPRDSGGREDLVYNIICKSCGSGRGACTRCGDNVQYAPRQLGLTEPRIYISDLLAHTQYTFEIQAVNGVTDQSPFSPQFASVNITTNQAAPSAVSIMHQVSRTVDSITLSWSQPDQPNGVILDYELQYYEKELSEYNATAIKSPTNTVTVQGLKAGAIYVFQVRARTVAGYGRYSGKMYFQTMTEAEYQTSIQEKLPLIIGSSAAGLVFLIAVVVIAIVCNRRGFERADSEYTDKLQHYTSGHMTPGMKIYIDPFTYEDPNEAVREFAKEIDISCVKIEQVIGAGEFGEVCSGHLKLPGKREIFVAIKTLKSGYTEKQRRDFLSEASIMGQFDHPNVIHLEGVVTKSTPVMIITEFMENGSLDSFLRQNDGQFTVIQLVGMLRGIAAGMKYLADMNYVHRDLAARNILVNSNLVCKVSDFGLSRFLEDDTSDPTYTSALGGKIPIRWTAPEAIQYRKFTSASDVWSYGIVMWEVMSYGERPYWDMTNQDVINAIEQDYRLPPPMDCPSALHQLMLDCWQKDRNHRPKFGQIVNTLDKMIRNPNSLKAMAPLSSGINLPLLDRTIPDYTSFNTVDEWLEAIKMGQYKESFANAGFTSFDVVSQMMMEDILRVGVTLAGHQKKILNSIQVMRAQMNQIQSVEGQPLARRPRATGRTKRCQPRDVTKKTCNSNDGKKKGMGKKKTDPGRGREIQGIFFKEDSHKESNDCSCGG

SMILES: COc1cc(Nc2nc(C)cc(-c3cnn4nc(OC)ccc34)n2)cc(C(F)(F)F)c1
% of control [1]: 83%

% of inhibition [2]: 18.9%
% of inhibition [3]: 8.3%
SMILES: CC[C@@H]1[C@H](F)C(=O)N[C@@H]1COc1nccc2cc(C(N)=O)c(OC)cc12 [ZIMLOVISERTIB]

IC50 [4]: > 10 µM
SMILES: CCC(=O)N1CC[C@H](Nc2ncnc3c2CN(c2cnc(OC)c(C(F)(F)F)c2)CC3)C1 [LENIOLISIB]

SMILES: COCC(=O)NC/C=C/c1ccc2ncnc(Nc3ccc(Oc4ccc(C)nc4)c(C)c3)c2c1 [CP-724714]
% of control [5]: 100%
% of control [6]: 87%

SMILES: COc1cc(N(C)c2ccnc3ccc(C(F)(F)F)cc23)cc(OC)c1OC
% binding [7]: 46%
% binding [8]: 93%
